Like-named read-outs stand apart in the source and are kept apart here.
Columns and labels:
IMP-14 D227Y = assay: IC50, inhibition of cephalothin hydrolysis; assay type: biochemical; settings: crude enzyme extract, 100 µM cephalothin, 3 min pre-incubation; read-out: IC50 against IMP-14 D227Y
Procedure: (§1) Genes encoding different acquired IMP-like enzymes suspected to be resistant to XER (blaIMP-6, blaIMP-7, blaIMP-10, blaIMP-14, blaIMP-26, blaIMP-34, and blaIMP-59) were amplified by PCR, and corresponding amplicons were cloned into plasmid pUCP24 and expressed in E. coli TOP10. The following recombinant E. coli strains producing IMP-1, IMP-4, IMP-19, and NDM-1 were used from a previous study ([16]). Therefore, site-directed mutagenesis was performed using the Q5 Site-Directed Mutagenesis kit (ref. E0554S, New England Biolabs, Ipswich, MA) to obtain mutants of NDM-1 and IMP-14 in order to test the impact of specific amino-acid substitutions with respect to XER sensitivity. For that purpose, a list of primers was designed and provided as Table S1. […] The nomenclature used in this study was according to the BBL sequence numbering ([52]).
(§2) Cultures of E. coli TOP10 harboring recombinant plasmids and therefore producing the different IMP-like tested were grown overnight at 37°C in 50 mL of lysogeny broth (LB) with gentamicin (50 µg/mL). The bacterial suspension was pelleted, resuspended in 10 mL of 100 mM phosphate buffer (pH 7) supplemented with ZnSO4 (5 µM) for E. coli TOP10 harboring IMPs and then sonicated using a Vibra Cell 75186 sonicator (Thermo Fisher Scientific), followed by centrifugation for 1 h at 11,000 × g and 4°C. The presence of the β-lactamase was monitored using nitrocefin (200 µM). Kinetic measurements were performed at room temperature in 100 mM sodium phosphate (pH 7.0) supplemented with ZnSO4 (5 µM) for IMPs using a UV/visible ULTROSPEC 2100 pro spectrophotometer (Amersham Biosciences, Buckinghamshire, UK). The wavelength and absorption coefficient of cephalothin (262 nm/Ʌ ɛ = −7960 M^−1.cm^−1) were used for all IMPs, and IC50 was determined in triplicate for TAN and XER. Various concentrations of these inhibitors were pre-incubated with the crude extract of the enzyme for 3 min at room temperature to determine the concentrations that reduced the hydrolysis rate of 100 µM of cephalothin by 50% ([54]).

IMP-14 H174N = assay: IC50, inhibition of cephalothin hydrolysis; assay type: biochemical; settings: crude enzyme extract, 100 µM cephalothin, 3 min pre-incubation; read-out: IC50 against IMP-14 H174N
Procedure: as §1, §2

IMP-14 N178S = assay: IC50, inhibition of cephalothin hydrolysis; assay type: biochemical; settings: crude enzyme extract, 100 µM cephalothin, 3 min pre-incubation; read-out: IC50 against IMP-14 N178S
Procedure: as §1, §2

IMP-14 N233Y = assay: IC50, inhibition of cephalothin hydrolysis; assay type: biochemical; settings: crude enzyme extract, 100 µM cephalothin, 3 min pre-incubation; read-out: IC50 against IMP-14 N233Y
Procedure: as §1, §2

IMP-14 S65G = assay: IC50, inhibition of cephalothin hydrolysis; assay type: biochemical; settings: crude enzyme extract, 100 µM cephalothin, 3 min pre-incubation; read-out: IC50 against IMP-14 S65G
Procedure: as §1, §2

IMP-14 = assay: IC50, inhibition of cephalothin hydrolysis; assay type: biochemical; settings: crude enzyme extract, 100 µM cephalothin, 3 min pre-incubation; read-out: IC50 against IMP-14
Procedure: as §2

IMP-26 = IMP-26 (Klebsiella pneumoniae, UniProt D0V558); assay: IC50, inhibition of cephalothin hydrolysis; assay type: biochemical
Procedure: as §2

IMP-59 = IMP-59 (Escherichia coli, UniProt A0A172MB70); assay: IC50, inhibition of cephalothin hydrolysis; assay type: biochemical
Procedure: as §2

IMP-6 = target: T1, IMP-6 (Serratia marcescens, UniProt P52699, S214G); assay: IC50, inhibition of cephalothin hydrolysis; assay type: biochemical; settings: crude enzyme extract, 100 µM cephalothin, 3 min pre-incubation; read-out: IC50 against IMP-6
T1 construct: made in house; host or cells: E. coli TOP10, plasmid pUCP24 (crude extract)
Procedure: as §2

NDM-1 = settings: crude enzyme extract, 100 µM cephalothin, 3 min pre-incubation; read-out: IC50 against NDM-1; cited from earlier work
IMP-1 = settings: crude enzyme extract, 100 µM cephalothin, 3 min pre-incubation; read-out: IC50 against IMP-1; cited from earlier work
IMP-10 = settings: crude enzyme extract, 100 µM cephalothin, 3 min pre-incubation; read-out: IC50 against IMP-10; cited from earlier work
IMP-19 = settings: crude enzyme extract, 100 µM cephalothin, 3 min pre-incubation; read-out: IC50 against IMP-19; cited from earlier work
IMP-4 = settings: crude enzyme extract, 100 µM cephalothin, 3 min pre-incubation; read-out: IC50 against IMP-4; cited from earlier work

Row | Structure (SMILES) | IC50 (IMP-14 D227Y) | IC50 (IMP-14 H174N) | IC50 (IMP-14 N178S) | IC50 (IMP-14 N233Y) | IC50 (IMP-14 S65G) | IC50 (IMP-14) | IC50 (IMP-26; crude enzyme extract, 100 µM cephalothin, 3 min pre-incubation, read-out: IC50 against IMP-26) | IC50 (IMP-59; crude enzyme extract, 100 µM cephalothin, 3 min pre-incubation, read-out: IC50 against IMP-59) | IC50 (IMP-6) | IC50 (NDM-1) | IC50 (IMP-1) | IC50 (IMP-10) | IC50 (IMP-19) | IC50 (IMP-4) | IC50 (IMP-26) | IC50 (IMP-59)
1 | NCCN[C@H]1CC[C@H](CC(=O)N[C@H]2Cc3cccc(C(=O)O)c3OB2O)CC1 [taniborbactam] | 204 µM | > 250 µM | > 250 µM | > 250 µM | > 250 µM | > 250 µM | > 250 µM | 7 µM | > 250 µM | […] | > 250 µM | > 250 µM | > 250 µM | > 250 µM | – | –
2 | O=C(O)c1c(F)ccc2c1OB(O)[C@@H]1C[C@H]21 [xeruborbactam] | 250 µM | 182 µM | 180 µM | 210 µM | 140 µM | > 250 µM | – | – | 180 µM | […] | 2.7 µM | 73 µM | 7.5 µM | 14.7 µM | 77 µM | 10.3 µM
